One experiment has as its target T1, PknB (Mycobacterium tuberculosis, UniProt P9WI81).
T1 construct: made in house
The experiment is described as follows: biochemical. Particulars: 3 nM PknB, 6 uM GarA, 3 μM ATP, 30 min, competitive tight-binding fit, several symbols in a cell = repeat determinations; for Ki: read-out: Ki Values. Further details: species or system M. tuberculosis.

Experiment [1] deals with Mycobacterium tuberculosis H37Ra. In words: Mycobacterium tuberculosis growth inhibition assay (microtiter dilution, resazurin reduction). The conditions noted are these: 7H9 broth, 9 days + 24 h resazurin, lowest concentration inhibiting resazurin reduction by >70%, several symbols in a cell = repeat determinations. In kind it is cell-based. The protocol: Compounds were screened for their ability to inhibit the growth of Mycobacterium tuberculosis H37Ra using a standard microtiter dilution method with reduction of the dye resazurin as an indicator of growth. The growth assay was carried out in standard Mycobacterium liquid growth medium, 7H9Broth (BD Biosciences, Franklin Lakes, N.J.) supplemented with 10% ADC enrichment (BD Biosciences, Franklin Lakes, N.J.). The medium was inoculate with ˜1×10^6 cells/milliliter of Mycobacterium tuberculosis H37Ra grown on a the surface of a growth medium solid medium (7H11 agar [BD Biosciences, Franklin Lakes, N.J.] supplemented with 10% OADC enrichment [BD Biosciences, Franklin Lakes, N.J.]).
Two-fold serial dilutions (either 7 or 11-step series) of test compounds in DMSO were dispensed into 96-well assay plates (sterile, black sided, clear bottom wells) in a volume of 1 microliter. One microliter of DMSO was dispensed into a control well at the end of each series. One-hundred microliters of the bacterial cell suspension in growth medium was dispensed into each test well containing a DSMO solution of compound. The assay plates were covered with a fitted lid and incubated at 37° C. in a humidified chamber for 9 days. On the ninth day 30 microliters of a 0.01% solution of resazurin (Sigma Chemical Co., St. Louis, Mo.) in distilled water was added to each well and the baseline fluorescence of resazurin was determined by measuring well fluorescence at an excitation wavelength of 492 nm and an emission wavelength of 595 nm on a Spectrafluor Plus (Tecan, Durham, N.C.) instrument. The assay plates were returned to the incubation chamber for 24 hours. After 24 hours, the fluorescence of the wells (resulting from the reduction of resazurin dye) was measured at an excitation wavelength of 492 nm and an emission wavelength of 595 nm on the Spectrafluor Plus instrument. The minimum inhibitory concentration (MIC) was called as the lowest concentration of compound that inhibited the reduction of resazurin by >70%, as compared to the DMSO (untreated) control wells. MIC values are represented as the following values: • A* <1.6 μM • A 1.6 μM<12.5 μM • B** 12.5 μM-25.0 μM • B* 25.0 μM-50.0 μM • B 50.0 μM-100.0 μM • C >100.0 μM

The values that follow come from patent US20110053916A1 (Vertex Pharmaceuticals Incorporated, priority 2009, published 2011).

As a reminder, the Ki is the equilibrium dissociation constant of an inhibitor or competing ligand from its target.

T1 sequence (P9WI81 whole entry): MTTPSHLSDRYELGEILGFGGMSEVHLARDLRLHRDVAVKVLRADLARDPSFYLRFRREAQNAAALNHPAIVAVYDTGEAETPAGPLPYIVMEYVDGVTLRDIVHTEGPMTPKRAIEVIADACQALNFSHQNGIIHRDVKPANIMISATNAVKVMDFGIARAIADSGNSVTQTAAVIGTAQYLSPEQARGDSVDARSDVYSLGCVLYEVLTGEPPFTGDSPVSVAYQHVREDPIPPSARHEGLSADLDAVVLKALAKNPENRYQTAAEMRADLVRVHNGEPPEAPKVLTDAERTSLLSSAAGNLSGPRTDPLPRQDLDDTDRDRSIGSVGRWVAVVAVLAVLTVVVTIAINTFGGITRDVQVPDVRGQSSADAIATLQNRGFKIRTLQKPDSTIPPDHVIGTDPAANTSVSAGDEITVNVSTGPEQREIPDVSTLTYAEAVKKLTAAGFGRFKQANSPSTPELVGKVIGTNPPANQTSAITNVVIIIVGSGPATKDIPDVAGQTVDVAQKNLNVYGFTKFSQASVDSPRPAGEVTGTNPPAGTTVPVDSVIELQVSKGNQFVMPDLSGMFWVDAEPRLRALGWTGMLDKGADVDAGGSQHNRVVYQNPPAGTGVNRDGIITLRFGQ

For `C[C@@H](O)c1ccc(-c2ncc(Cl)c(Nc3cc(C4CC4)[nH]n3)n2)s1` (stereo in doubt) [Compound 133, 1-[5-[5-chloro-4-[(5-cyclopropyl-1H-pyrazol-3-yl)amino]-pyrimidin-2-yl]-2-thienyl]ethanol], on PknB, the “Ki Values” was “A**, A*”. For the same molecule, in experiment [1], the MIC values entry is reported as “B++”.
For the molecule `CC(O)c1ccc(-c2ncc(F)c(Nc3cc(C4CC4)[nH]n3)n2)s1` (stereo in doubt) [Compound 144, (S)-1-(5-(4-(5-cyclopropyl-1H-pyrazol-3-ylamino)-5-fluoropyrimidin-2-yl)thiophen-2yl)ethanol], the inhibition constant Ki at PknB was in the range of 10 to 50 nM. Besides, the MIC values entry in experiment [1] was “B++”.
For the molecule `CC(O)c1ccc(-c2ncc(F)c(Nc3cc(C4CC4)[nH]n3)n2)s1` (stereo in doubt) [Compound 147, (R)-1-(5-(4-(5-cyclopropyl-1H-pyrazol-3-ylamino)-5-fluoropyrimidin-2-yl)thiophen-2-yl)ethanol], on PknB, the inhibition constant (Ki) lay in the range of 10 to 50 nM. The MIC values result in experiment [1] is given as “B++”.
For `C#Cc1cnc(-c2ccc([C@@H](O)CC)s2)nc1Nc1cc(C2CC2)[nH]n1` (stereo in doubt) [Compound 199, 1-[5-[4-[(5-cyclopropyl-1H-pyrazol-3-yl)amino]-5-ethynyl-pyrimidin-2-yl]-2-thienyl]propan-1-ol], the “Ki Values” at PknB is “A**, A*”. Besides, the MIC values result in experiment [1] is listed as “B+”.
Consider `N#CCc1ccc(Nc2nccc(Nc3cc(C4CC4)[nH]n3)n2)cc1` [Compound 1, 2-(4-(4-(5-cyclopropyl-1H-pyrazol-3-ylamino)pyrimidin-2-ylamino)phenyl)acetonitrile], for which the Ki on PknB was 10 to 50 nM. In addition, in experiment [1], the MIC values result is recorded as “BM, B”.
In the case of `NS(=O)(=O)c1ccc(Nc2nccc(Nc3cc(C4CC4)[nH]n3)n2)cc1` [Compound 12, 4-(4-(5-cyclopropyl-1H-pyrazol-3-ylamino)pyrimidin-2-ylamino)benzene sulfonamide], at PknB, the inhibitory constant (Ki) fell in the range of 1 to 10 nM. For the same molecule, the MIC values entry in experiment [1] was “B+”.
`C#Cc1cnc(-c2ccccc2)nc1Nc1cc(C2CC2)[nH]n1` [Compound 14, N-(5-cyclopropyl-1H-pyrazol-3-yl)-5-ethynyl-2-phenylpyrimidin-4-amine]: the “Ki Values” at PknB is recorded as “A*, A”. In addition, the MIC values entry in experiment [1] is recorded as “B+, B”.
Turning to `N#CCc1ccc(-c2ncc(Cl)c(Nc3cc(C4CC4)[nH]n3)n2)cc1` [Compound 18, 2-(4-(5-chloro-4-(5-cyclopropyl-1H-pyrazol-3-ylamino)pyrimidin-2-yl)phenyl)acetonitrile], the “Ki Values” on PknB is “A**, A*”. For the same molecule, the MIC values entry in experiment [1] is “B, B, C”.
For the molecule `N#CCc1ccc(-c2ncc(F)c(Nc3cc(C4CC4)[nH]n3)n2)cc1` [Compound 19, 2-(4-(4-(5-cyclopropyl-1H-pyrazol-3-ylamino)-5-fluoropyrimidin-2-yl)phenyl)acetonitrile], the Ki on PknB lay in the range of 1 to 10 nM. Further, the MIC values entry in experiment [1] is “B, B, C, C”.
In the case of `C=C(Cl)c1cnc(-c2ccccc2)nc1Nc1cc(C2CC2)[nH]n1` [Compound 21, 5-(1-chlorovinyl)-N-(5-cyclopropyl-1H-pyrazol-3-yl)-2-phenyl-pyrimidin-4-amine], the Ki at PknB is 500 to 1000 nM. In addition, the MIC values result in experiment [1] is on record as “B+, B, B”.
In the case of `OCc1ccc(-c2ncc(Cl)c(Nc3cc(C4CC4)[nH]n3)n2)s1` [Compound 25, [5-[5-chloro-4-[(5-cyclopropyl-1H-pyrazol-3-yl)amino]-pyrimidin-2-yl]-2-thienyl]methanol], the Ki on PknB was in the range of 10 to 50 nM. Also, the MIC values entry in experiment [1] is recorded as “B+”.
As to `OCc1ccc(-c2ncc(F)c(Nc3cc(C4CC4)[nH]n3)n2)s1` [Compound 26, (5-(4-(5-cyclopropyl-1H-pyrazol-3-ylamino)-5-fluoropyrimidin-2-yl)thiophen-2-yl)methanol], on PknB, the inhibition constant (Ki) was in the range of 10 to 50 nM. Besides, the MIC values result in experiment [1] was “B+”.
For `Cc1cnc(-c2ccc(Cl)c(C(N)=O)c2)nc1Nc1cc(C2CC2)[nH]n1` [Compound 32, 2-chloro-5-[4-[(5-cyclopropyl-1H-pyrazol-3-yl)amino]-5-methyl-pyrimidin-2-yl]-benzamide], in that order: 50 to 100 nM and “B+”.
With `CNS(=O)(=O)c1ccc(-c2ncc(C)c(Nc3cc(C4CC4)[nH]n3)n2)s1` [Compound 33, 5-[4-[(5-cyclopropyl-1H-pyrazol-3-yl)amino]-5-methyl-pyrimidin-2-yl]-N-methyl-thiophene-2-sulfonamide], at PknB, the inhibition constant (Ki) lay in the range of 10 to 50 nM. Further, the MIC values entry in experiment [1] is “B+”.
Regarding `Cc1cnc(-c2ccc(CO)s2)nc1Nc1cc(C2CC2)[nH]n1` [Compound 36, [5-[4-[(5-cyclopropyl-1H-pyrazol-3-yl)amino]-5-methyl-pyrimidin-2-yl]-2-thienyl]methanol], the Ki at PknB lay in the range of 50 to 100 nM. In experiment [1], the MIC values result was “B++, B+”.
On the same counts, the results for `CNS(=O)(=O)c1ccc(-c2ncc(Cl)c(Nc3cc(C4CC4)[nH]n3)n2)s1` [Compound 37, 5-[5-chloro-4-[(5-cyclopropyl-1H-pyrazol-3-yl)amino]-pyrimidin-2-yl]-N-methyl-thiophene-2-sulfonamide] are 1 to 10 nM and “B+”.
On the same counts, the results for `Fc1cnc(-c2cccs2)nc1Nc1cc(C2CC2)[nH]n1` [Compound 41, N-(5-cyclopropyl-1H-pyrazol-3-yl)-5-fluoro-2-(thiophen-2-yl)pyrimidin-4-amine] are 10 to 50 nM and “B+”.
In the case of `CNS(=O)(=O)c1ccc(-c2ncc(F)c(Nc3cc(C4CC4)[nH]n3)n2)s1` [Compound 43, 5-[4-[(5-cyclopropyl-1H-pyrazol-3-yl)amino]-5-fluoro-pyrimidin-2-yl]-N-methyl-thiophene-2-sulfonamide], the Ki at PknB lay in the range of 1 to 10 nM. In addition, the MIC values result in experiment [1] was “B++”.
For the molecule `NC(=O)c1cc(-c2nccc(Nc3cc(C4CC4)[nH]n3)n2)ccc1Cl` [Compound 51, 2-chloro-5-[4-[(5-cyclopropyl-1H-pyrazol-3-yl)amino]pyrimidin-2-yl]-benzamide], on PknB, the Ki was 50 to 100 nM. Moreover, in experiment [1], the MIC values entry is given as “B++”.
For the molecule `OC/C=C/c1cnc(-c2ccccc2)nc1Nc1cc(C2CC2)[nH]n1` [Compound 53, (E)-3-(4-(5-cyclopropyl-1H-pyrazol-3-ylamino)-2-phenylpyrimidin-5-yl)prop-2-en-1-ol], the “Ki Values” at PknB was “A, B**, B**”. Moreover, in experiment [1], the MIC values result is “B+”.
For the molecule `O=C(O)c1cccc(Nc2nccc(Nc3cc(C4CC4)n[nH]3)n2)c1` [Compound 63, 3-[[4-[(5-cyclopropyl-2H-pyrazol-3-yl)amino]pyrimidin-2-yl]amino]benzoic acid], the inhibition constant Ki on PknB was greater than 4000 nM. For the same molecule, the MIC values result in experiment [1] is “B+”.
Take `CCCc1cnc(N2CCCCC2)nc1Nc1cc(C2CC2)[nH]n1` [Compound 66, N-(5-cyclopropyl-1H-pyrazol-3-yl)-2-(1-piperidyl)-5-propyl-pyrimidin-4-amine]: on PknB, the Ki is 1000 to 2000 nM. Besides, in experiment [1], the MIC values result is “B+”.
Regarding `CC(C)(C)NS(=O)(=O)c1ccc(-c2ncc(CCO)c(Nc3cc(C4CC4)[nH]n3)n2)s1` [Compound 228, 5-[4-[(5-cyclopropyl-1H-pyrazol-3-yl)amino]-5-(2-hydroxyethyl)pyrimidin-2-yl]-N-tert-butyl-thiophene-2-sulfonamide], in experiment [1], the MIC values result was “B+”.
